Laboratory results published in ChEMBL document CHEMBL5728326, “Aminopyridine derivatives and their use as selective ALK-2 inhibitors” (2021).

What was measured:
[1] = biological target: Bone morphogenetic protein receptor type-1B (Homo sapiens, UniProt O00238)
[2] = biological target: Activin receptor type-1-like (Homo sapiens, UniProt P37023)
Activin receptor type-1-like, sequence (P37023 22-503 limits assumed, change not shown): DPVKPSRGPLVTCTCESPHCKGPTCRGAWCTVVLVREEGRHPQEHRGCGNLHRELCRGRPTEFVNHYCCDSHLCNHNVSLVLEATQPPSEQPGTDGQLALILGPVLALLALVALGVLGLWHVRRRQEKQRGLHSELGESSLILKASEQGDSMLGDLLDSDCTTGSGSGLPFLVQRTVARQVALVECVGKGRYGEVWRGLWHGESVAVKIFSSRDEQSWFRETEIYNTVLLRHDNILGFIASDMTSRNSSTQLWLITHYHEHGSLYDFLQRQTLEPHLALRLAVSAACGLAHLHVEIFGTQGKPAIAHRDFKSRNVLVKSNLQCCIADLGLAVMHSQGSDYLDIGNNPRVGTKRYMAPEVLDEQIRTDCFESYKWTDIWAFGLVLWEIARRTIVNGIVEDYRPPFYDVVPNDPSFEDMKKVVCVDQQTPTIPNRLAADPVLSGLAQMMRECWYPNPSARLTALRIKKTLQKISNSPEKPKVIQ

Bone morphogenetic protein receptor type-1B, sequence (O00238 14-502 limits assumed, change not shown): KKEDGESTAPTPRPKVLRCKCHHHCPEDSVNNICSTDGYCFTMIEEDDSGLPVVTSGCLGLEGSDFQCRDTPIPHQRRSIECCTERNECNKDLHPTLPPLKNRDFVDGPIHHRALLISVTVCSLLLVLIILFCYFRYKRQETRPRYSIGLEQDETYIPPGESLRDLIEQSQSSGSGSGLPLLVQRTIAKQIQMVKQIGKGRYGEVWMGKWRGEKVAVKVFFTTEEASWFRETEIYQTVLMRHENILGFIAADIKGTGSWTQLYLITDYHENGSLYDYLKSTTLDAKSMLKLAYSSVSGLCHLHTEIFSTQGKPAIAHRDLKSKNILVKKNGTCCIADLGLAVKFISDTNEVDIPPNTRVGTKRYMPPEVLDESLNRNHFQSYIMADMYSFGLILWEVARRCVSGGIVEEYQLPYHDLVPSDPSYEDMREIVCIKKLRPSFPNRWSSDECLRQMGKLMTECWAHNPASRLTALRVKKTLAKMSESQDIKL

IC50 [1]: 10 µM
IC50 [2]: 0.89 µM
Compound: NC(=O)c1ccc(-c2cnc(N)c(C(=O)N[C@H]3CC[C@@H](O)CC3)c2)cc1
